Experimental data from article PMC7924852, “The Emericellipsins A–E from an Alkalophilic Fungus Emericellopsis alkalina Show Potent Activity against Multidrug-Resistant Pathogenic Fungi” (Journal of Fungi, 2021).
Converted amounts (≈) assume the structure as drawn. Non-standard residues stand in square brackets, D forms with d. Residues, ends and D or L forms follow the SMILES beside them. Orn = NCCC[C@H](N)C(=O)O

Tests used:
C. parapsilosis 571 [1] = test: Sensititre YeastOne antifungal susceptibility test; type: cell-based; settings: Lodderomyces parapsilosis, 571
A. terreus 3 K [2] = test: Disc-diffusion antifungal assay; type: cell-based; settings: Aspergillus terreus
A. fumigatus 390 m [3] = test: Disc-diffusion antifungal assay; type: cell-based, Aspergillus fumigatus; settings: Aspergillus fumigatus, pathogenic clinical isolate
A. niger ATCC 16404 = test: Broth two-fold microdilution MIC (CLSI); type: cell-based, Aspergillus niger; settings: Aspergillus niger, ATCC16404, 48 h, pH 7, read-out: Minimal Inhibitory Concentration (MIC)
A. fumigatus 390m = test: Sensititre YeastOne antifungal susceptibility test; type: cell-based; settings: Aspergillus fumigatus, 390M
Cr. laurentii 325m = test: Sensititre YeastOne antifungal susceptibility test; type: cell-based; settings: Papiliotrema laurentii, 325M
A. terreus 497 [4] = test: Disc-diffusion antifungal assay; type: cell-based; settings: Aspergillus terreus, A. terreus 497, pathogenic clinical isolate
[5] = system: clinical isolates of Candida; test: Disc-diffusion antifungal assay, clinical yeast isolates; type: cell-based; settings: range over clinical isolates of Candida (Figure S2)
A. fumigatus VKM F-37 [6] = test: Disc-diffusion antifungal assay; type: cell-based, Aspergillus fumigatus; settings: Aspergillus fumigatus, VKMF37
A. fumigatus 390 m [7] = test: Broth two-fold microdilution MIC (CLSI); type: cell-based, Aspergillus fumigatus; settings: Aspergillus fumigatus, 390M, 48 h, pH 7, read-out: Minimal Inhibitory Concentration (MIC)
A. terreus 497 [8] = test: Sensititre YeastOne antifungal susceptibility test; type: cell-based; settings: Sensititre YeastOne; A. terreus 497
C. krusei 1447 [9] = test: Sensititre YeastOne antifungal susceptibility test; type: cell-based; settings: Pichia kudriavzevii, 1447
C. tropicalis 156 [10] = test: Broth microdilution MIC and MFC (CLSI); type: cell-based
A. terreus 497 [11] = test: Broth two-fold microdilution MIC (CLSI); type: cell-based; settings: Aspergillus terreus, 497, 48 h, pH 7, read-out: Minimal Inhibitory Concentration (MIC)
C. glabrata 1402 [12] = test: Sensititre YeastOne antifungal susceptibility test; type: cell-based; settings: Nakaseomyces glabratus, 1402
C. krusei 1447 [13] = test: Broth microdilution MIC and MFC (CLSI); type: cell-based
[14] = system: Aspergillus niger ATCC 16404; test: Disc-diffusion antifungal assay; type: cell-based; settings: Aspergillus niger, ATCC16404, A. niger ATCC 16404
C. glabrata 1402 [15] = test: Broth microdilution MIC and MFC (CLSI); type: cell-based
A. fumigatus VKM F-37 [16] = test: Broth two-fold microdilution MIC (CLSI); type: cell-based, Aspergillus fumigatus; settings: Aspergillus fumigatus, VKMF37, 48 h, pH 7, read-out: Minimal Inhibitory Concentration (MIC)
A. terreus 3 K [17] = test: Broth two-fold microdilution MIC (CLSI); type: cell-based; settings: Aspergillus terreus, 3K, 48 h, pH 7, read-out: Minimal Inhibitory Concentration (MIC)
Candida albicans 1402 [18] = test: Sensititre YeastOne antifungal susceptibility test; type: cell-based; settings: Candida albicans, 1402
[19] = system: Cryptococcus neoformans 297; test: Sensititre YeastOne antifungal susceptibility test; type: cell-based; settings: Cryptococcus neoformans, 297
A. niger 1133 m [20] = test: Broth two-fold microdilution MIC (CLSI); type: cell-based, Aspergillus niger; settings: Aspergillus niger, 1133M, 48 h, pH 7, read-out: Minimal Inhibitory Concentration (MIC)
C. parapsilosis 571 [21] = test: Broth microdilution MIC and MFC (CLSI); type: cell-based
[22] = system: Cryptococcus neoformans 297; test: Broth microdilution MIC and MFC (CLSI); type: cell-based
C. laurentii 325m = test: Broth microdilution MIC and MFC (CLSI); type: cell-based, Cr. laurentii; settings: Papiliotrema laurentii
Candida albicans 1402 [23] = test: Broth microdilution MIC and MFC (CLSI); type: cell-based
Aspergillus niger 1133m = test: Sensititre YeastOne antifungal susceptibility test; type: cell-based; settings: Aspergillus niger, 1133M
C. tropicalis 156 [24] = test: Sensititre YeastOne antifungal susceptibility test; type: cell-based; settings: Candida tropicalis, 156
[25] = system: reference and clinical strains of Aspergillus; test: Disc-diffusion antifungal assay, Aspergillus strains; type: cell-based; settings: range over clinical isolates of Aspergillus (Figure S2)
A. niger 1133 m [26] = test: Disc-diffusion antifungal assay; type: cell-based, Aspergillus niger; settings: Aspergillus niger, pathogenic clinical isolate
human erythrocytes = test: Hemolytic activity; type: cell-based; settings: 20 μM, 1 h, 37 °C, relative to H2O control = 100%, OD 540 nm or 570 nm, triplicate, mean
Method: Erythrocytes were isolated from the peripheral blood of healthy donors after incubation at 4 °C for 2–3 h. All the donors are males, 35–38 years old. All of them have approved to collect blood samples, and the authors have permissions filled. All the blood samples have been destroyed after the experiments finished. The red blood cell suspension (100 μL) was pelleted, washed twice with saline, then the pellet was resuspended in 500 μL saline or distilled water (positive control of hemolysis). The compounds were added (final concentration of 20 μM). The samples were incubated for 1 h at 37 °C and centrifuged at 2000 rpm for 1.5 min. The OD of supernatants was measured on a Multiscan spectrophotometer FC (Thermo Scientific, Waltham, MA, USA) at a wavelength of 540 nm. The percent hemolysis was calculated relative to the positive control, taken as 100%.
Erythrocytes were isolated from the human blood: On the day of the study, blood was taken from the donor’s cubital vein into a test tube with an anticoagulant. The blood was incubated at 4 °C for 2‒3 h. A suspension of erythrocytes (100 μL) was diluted with a physiological buffer (pH 7.2) to a total volume of 500 μL. Solutions of the test substances with an initial concentration of […] (DMSO) were diluted with a PBS buffer (1:10). The resulting solutions were introduced into Eppendorf tubes in the amounts required to create the studied concentration (5, 10, or 20 μM). A mixture of PBS with erythrocytes was added to a total volume of 200 μL. The control (C) was a mixture of erythrocytes with H2O (100% of hemolysis). The intact control solution (I) was a mixture of erythrocytes with the PBS and solvent (DMSO). The antibiotic gramicidin S (Gram S) was used as a control sample with active hemolysis. The mixture was incubated for 1 h at 37 °C. The measurement of the optical density of the supernatants was carried out on a BioTek ELx800 automatic microplate photometer (USA) at 570 nm. The optical density of the liquid above the sediment in the control sample with H2O was taken as 100%.

SMILES: C[C@@H]1[C@H](O)[C@@H](C)/C=C/C=C/C=C/C=C/C=C/C=C/C=C/[C@H](O[C@@H]2O[C@H](C)[C@@H](O)[C@H](N)[C@@H]2O)C[C@@H]2O[C@](O)(C[C@@H](O)C[C@@H](O)[C@H](O)CC[C@@H](O)C[C@@H](O)CC(=O)O[C@H]1C)C[C@H](O)[C@H]2C(=O)O [AmpB, Amphotericin B]
- MIC (C. parapsilosis 571 [1]): 1 µg/mL (≈ 1.08 µM)
- zone of inhibition at 40 µg/disc (A. terreus 3 K [2]): 0 mm
- zone of inhibition at 40 µg/disc (A. fumigatus 390 m [3]): 15 ± 0.51 mm
- MIC (A. niger ATCC 16404): 1 µg/mL (≈ 1.08 µM)
- MIC (A. fumigatus 390m): 1 µg/mL (≈ 1.08 µM)
- MIC (Cr. laurentii 325m): 0.5 µg/mL (≈ 0.541 µM)
- zone of inhibition at 40 µg/disc (A. terreus 497 [4]): 0 mm
- inhibition zones [5]: 10–12 mm
- zone of inhibition at 40 µg/disc (A. fumigatus VKM F-37 [6]): 12 ± 0.23 mm
- MIC (A. fumigatus 390 m [7]): 1 µg/mL (≈ 1.08 µM)
- MIC (class symbol) (A. terreus 497 [8]): R
- MIC (C. krusei 1447 [9]): 2 µg/mL (≈ 2.16 µM)
- MIC (C. tropicalis 156 [10]; Candida tropicalis, 156, 24 h, pH 7): 0.5 µg/mL (≈ 0.541 µM)
- MFC (C. tropicalis 156 [10]; Candida tropicalis, C. tropicalis 156, lowest concentration causing 95% death, read-out: MFC): 1 µg/mL (≈ 1.08 µM)
- MIC (A. terreus 497 [11]): > 64 µg/mL
- MIC (C. glabrata 1402 [12]): 1 µg/mL (≈ 1.08 µM)
- MIC (C. krusei 1447 [13]; Pichia kudriavzevii, 1447, 24 h, pH 7): 2 µg/mL (≈ 2.16 µM)
- MFC (C. krusei 1447 [13]; Pichia kudriavzevii, C. krusei 1447, lowest concentration causing 95% death, read-out: MFC): 4 µg/mL (≈ 4.33 µM)
- zone of inhibition at 40 µg/disc [14]: 0 mm
- MIC (C. glabrata 1402 [15]; Nakaseomyces glabratus, 1402, 24 h, pH 7): 1 µg/mL (≈ 1.08 µM)
- MFC (C. glabrata 1402 [15]; Nakaseomyces glabratus, C. glabrata 1402, lowest concentration causing 95% death, read-out: MFC): 1 µg/mL (≈ 1.08 µM)
- MIC (A. fumigatus VKM F-37 [16]): 1 µg/mL (≈ 1.08 µM)
- MIC (A. terreus 3 K [17]): > 64 µg/mL
- MIC (Candida albicans 1402 [18]): 0.5 µg/mL (≈ 0.541 µM)
- MIC [19]: 1 µg/mL (≈ 1.08 µM)
- MIC (A. niger 1133 m [20]): 1 µg/mL (≈ 1.08 µM)
- MIC (C. parapsilosis 571 [21]; Lodderomyces parapsilosis, 571, 24 h, pH 7): 1 µg/mL (≈ 1.08 µM)
- MFC (C. parapsilosis 571 [21]; Lodderomyces parapsilosis, C. parapsilosis 571, lowest concentration causing 95% death, read-out: MFC): 1 µg/mL (≈ 1.08 µM)
- MFC ([22]; Cryptococcus neoformans 297, lowest concentration causing 95% death, read-out: MFC): 1 µg/mL (≈ 1.08 µM)
- MIC ([22]; Cryptococcus neoformans, 297, 24 h, pH 7): 0.5 µg/mL (≈ 0.541 µM)
- MIC (C. laurentii 325m; 325M, 24 h, pH 7): 0.25 µg/mL (≈ 0.271 µM)
- MFC (C. laurentii 325m; C. laurentii 325m, lowest concentration causing 95% death, read-out: MFC): 0.5 µg/mL (≈ 0.541 µM)
- MFC (Candida albicans 1402 [23]; Candida albicans 1402, lowest concentration causing 95% death, plated on PDA agar, read-out: MFC): 0.5 µg/mL (≈ 0.541 µM)
- MIC (Candida albicans 1402 [23]; Candida albicans 1402 clinical isolate, RPMI 1640 pH 7.0, 35 °C, 24 h, read-out: MIC): 0.5 µg/mL (≈ 0.541 µM)
- MIC (Aspergillus niger 1133m): 1 µg/mL (≈ 1.08 µM)
- MIC (C. tropicalis 156 [24]): 0.5 µg/mL (≈ 0.541 µM)
- inhibition zones [25]: 15–17 mm
- zone of inhibition at 40 µg/disc (A. niger 1133 m [26]): 10 ± 0.14 mm

SMILES: CC(C)C[C@@H]1NC(=O)[C@H](CCCN)NC(=O)[C@H](C(C)C)NC(=O)[C@@H]2CCCN2C(=O)[C@@H](Cc2ccccc2)NC(=O)[C@H](CC(C)C)NC(=O)[C@H](CCCN)NC(=O)[C@H](C(C)C)NC(=O)[C@@H]2CCCN2C(=O)[C@@H](Cc2ccccc2)NC1=O [gramicidin S] (cyclo(L[dF]PV[Orn]L[dF]PV[Orn]))
- hemolysis (human erythrocytes): 100%
